Measured values: US10124004B2, “Pyrido[3,4-d]pyrimidine derivative and pharmaceutically acceptable salt thereof” (Teijin Pharma Limited, priority 2015, dated 2018)
Like-named read-outs stand apart in the source and are kept apart here.

What was measured:
CDK2/cyclin A2 = target: T1, CDK2/cyclin A2 (Homo sapiens, UniProt P24941); assay: Human CDK2/cyclin A2 inhibitory activity (QS S Assist CDK2/Cyclin A2_FP Kit, IMAP fluorescence polarization); type: biochemical
T1 construct: purchased Carna Biosciences, Inc. QS S Assist CDK2/Cyclin A2_FP Kit
In short: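 Kinase activity read as fluorescence polarization (485/535 nm) after phosphorylated fluorescent substrate binds IMAP reagent (30 min, RT, dark). Enzyme (2.5 ng/well) reacted 60 min at RT with ATP/substrate/metal in HEPES pH 7.4 buffer with Tween 20 and DTT; no-enzyme wells define 0% activity; IC50 by curve fit.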

CDK4/cyclin D3 = target: T2, CDK4/cyclin D3 (Homo sapiens, UniProt P11802); assay: Human CDK4/cyclin D3 inhibitory activity (QS S Assist CDK4/Cyclin D3_FP Kit, IMAP fluorescence polarization); type: biochemical
T2 construct: purchased Carna Biosciences, Inc. QS S Assist CDK4/Cyclin D3_FP Kit
In short: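 IMAP fluorescence-polarization kinase assay with kit ATP/substrate/metal mix and 12.5 to 25 ng/well enzyme in 20 mM HEPES pH 7.4, 0.01% Tween20, 2 mM DTT. Reaction ran 45 min at room temperature, then binding reagent was added for 30 min in the dark. IC50 was taken from dose-response fits of percent inhibition.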

[1] = 50% inhibitory concentration against CDK2/cyclin A2, given as class symbol
[2] = 50% inhibitory concentration against CDK4/cyclin D3, given as class symbol
[3] = Human CDK2/cyclin A2 inhibitory activity, read-out: CDK2 Activity symbol
[4] = Human CDK4/cyclin D3 inhibitory activity, read-out: CDK4 Activity symbol

T2 sequence (P11802 whole entry): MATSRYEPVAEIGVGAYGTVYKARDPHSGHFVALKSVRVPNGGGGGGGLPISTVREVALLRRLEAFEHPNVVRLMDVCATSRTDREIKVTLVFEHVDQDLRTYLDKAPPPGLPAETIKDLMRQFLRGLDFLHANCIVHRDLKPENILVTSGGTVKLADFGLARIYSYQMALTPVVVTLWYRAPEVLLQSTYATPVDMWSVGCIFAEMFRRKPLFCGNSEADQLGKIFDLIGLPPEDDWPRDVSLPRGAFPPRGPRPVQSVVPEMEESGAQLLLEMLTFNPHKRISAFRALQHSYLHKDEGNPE
T2 sequence (P30281 whole entry partner): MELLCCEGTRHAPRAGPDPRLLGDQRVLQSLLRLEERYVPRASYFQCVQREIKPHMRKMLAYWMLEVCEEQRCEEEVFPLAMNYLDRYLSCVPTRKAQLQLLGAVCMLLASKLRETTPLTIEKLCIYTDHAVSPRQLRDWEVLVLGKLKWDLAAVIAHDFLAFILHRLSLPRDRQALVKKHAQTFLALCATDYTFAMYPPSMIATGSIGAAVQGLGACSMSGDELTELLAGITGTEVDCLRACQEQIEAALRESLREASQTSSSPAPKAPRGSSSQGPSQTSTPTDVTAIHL

Compound	IC50 (CDK2/cyclin A2; [1])	IC50 (CDK4/cyclin D3; [2])	IC50 (CDK2/cyclin A2; [3])	IC50 (CDK4/cyclin D3; [4])
CO[C@H](C)c1cc2cnc(Nc3ccc(N4CCNCC4)c(C)n3)nc2c(NC(C)C)n1 [Compound 925]	≥ 100 nM	< 10 nM	–	–
CC(C)Nc1nc(C(F)F)cc2cnc(Nc3ccc(-n4cnnn4)cn3)nc12 [Compound 211]	–	–	10 to 100 nM	10 to 100 nM
CCCCNc1nc([C@@H](C)O)cc2cnc(Nc3ccc(N4CCNCC4=O)cn3)nc12 [Compound 813]	≥ 100 nM	< 10 nM	–	–
CC(C)Nc1nc([C@@H](C)O)cc2cnc(Nc3ccc(N4CCCNCC4=O)cn3)nc12 [Compound 521]	–	–	10 to 100 nM	< 10 nM
CC(C)Nc1nc([C@@H](C)O)cc2cnc(Nc3ccc(N4CCN(C[C@H](C)O)CCC4=O)cn3)nc12 [Compound 720]	≥ 100 nM	< 10 nM	–	–
COC1CCC(Nc2nc([C@@H](C)OC)cc3cnc(Nc4ccc(N5CCNCC5)nn4)nc23)CC1 (stereo partly drawn) [Compound 711]	≥ 100 nM	< 10 nM	–	–
CC(C)Nc1nc(C(F)F)cc2cnc(Nc3ccc(N4CCC(CCCO)CC4)cn3)nc12 [Compound 51]	–	–	≥ 100 nM	10 to 100 nM
C[C@@H](O)c1cc2cnc(Nc3ccc(N4CCNCC4=O)cn3)nc2c(NC2(C)CCCOC2)n1 (stereo partly drawn) [Compound 903]	10 to 100 nM	< 10 nM	–	–
CC(C)Nc1nc([C@@H](C)O)cc2cnc(Nc3ccc(C(=O)N4CCNC[C@H]4C)cn3)nc12 [Compound 1167]	10 to 100 nM	< 10 nM	–	–
CO[C@H](C)c1cc2cnc(Nc3ccc(CN4CCNCC4)nn3)nc2c(NC(C)C)n1 [Compound 246]	–	–	≥ 100 nM	< 10 nM
CCNC(=O)NCc1ccc(Nc2ncc3cc(C(F)F)nc(NC(C)C)c3n2)nc1 [Compound 186]	–	–	≥ 100 nM	10 to 100 nM
CO[C@H](C)c1cc2cnc(Nc3ccc(NC4CCNCC4)nn3)nc2c(NC(C)C)n1 [Compound 336]	–	–	≥ 100 nM	< 10 nM
C[C@@H](O)c1cc2cnc(Nc3ccc(N4CCNCC4=O)cn3)nc2c(NC2CCOCC2)n1 [Compound 350]	–	–	≥ 100 nM	< 10 nM
CC(C)Nc1nc([C@@H](C)O)cc2cnc(Nc3ccc(N4CCN(CC(N)=O)CC4)nn3)nc12 [Compound 937]	≥ 100 nM	< 10 nM	–	–
CC(C)Nc1nc(C(F)F)cc2cnc(Nc3ccc(OCCN(C)C)cn3)nc12 [Compound 81]	–	–	10 to 100 nM	< 10 nM
CCCNc1nc([C@@H](C)O)cc2cnc(Nc3ccc(CN4CCN(C[C@H](C)O)CC4)cn3)nc12 [Compound 1075]	≥ 100 nM	< 10 nM	–	–
COC1CCC(Nc2nc([C@@H](C)O)cc3cnc(Nc4ccc(N5CCN(C)CC5)nn4)nc23)CC1 (stereo partly drawn) [Compound 641]	≥ 100 nM	< 10 nM	–	–
CNCCOc1ccc(Nc2ncc3cc(C(C)O)nc(NC4(C)CCCOC4)c3n2)nc1 (single isomer, unassigned) [Compound 870]	≥ 100 nM	< 10 nM	–	–
CC(C)Nc1nc(C(F)F)cc2cnc(Nc3ccc(CN4CCC(C(=O)O)C4)cn3)nc12 (stereo not drawn) [Compound 190]	–	–	10 to 100 nM	< 10 nM
CC(C)Nc1nc(C(F)F)cc2cnc(Nc3ccc(OCCCO)cn3)nc12 [Compound 156]	–	–	≥ 100 nM	< 10 nM
CC(C)Nc1nc(C(F)F)cc2cnc(Nc3ccc(CCCC(N)=O)cn3)nc12 [Compound 135]	–	–	≥ 100 nM	< 10 nM
CC(C)Nc1nc(C(F)F)cc2cnc(Nc3ccc(C4CCOCC4=O)cn3)nc12 (stereo not drawn) [Compound 161]	–	–	10 to 100 nM	< 10 nM
CC(O)c1cc2cnc(Nc3ccc(N4CCNCC4)cn3)nc2c(NC(C)(C)C)n1 (stereo not drawn) [Compound 24]	–	–	≥ 100 nM	< 10 nM
CCCNc1nc([C@@H](C)O)cc2cnc(Nc3cc(C)c(CN4CCN(CCO)CC4)cn3)nc12 [Compound 1054]	≥ 100 nM	10 to 100 nM	–	–
CC(C)Nc1nc(C(C)O)cc2cnc(Nc3ccc(OC4CCC(C(=O)O)CC4)cn3)nc12 (single isomer, unassigned) [Compound 832]	≥ 100 nM	10 to 100 nM	–	–
C[C@@H](O)c1cc2cnc(Nc3ccc(N4CCNCC4=O)cn3)nc2c(NCC(F)(F)F)n1 [Compound 1174]	≥ 100 nM	< 10 nM	–	–
CC(C)Nc1nc([C@@H](C)O)cc2cnc(Nc3ccc(N4CCNCC(C)C4=O)cn3)nc12 (stereo partly drawn) [Compound 665]	≥ 100 nM	< 10 nM	–	–
CNCCOc1ccc(Nc2ncc3cc([C@@H](C)O)nc(N(C)[C@H]4CCCOC4)c3n2)nc1 [Compound 868]	≥ 100 nM	< 10 nM	–	–
CC(C)Nc1nc([C@@H](C)O)cc2cnc(Nc3ccc(CN4CCN(C(C)CO)CC4)cn3)nc12 (stereo partly drawn) [Compound 644]	≥ 100 nM	< 10 nM	–	–
CCCCNc1nc([C@@H](C)O)cc2cnc(Nc3ccc(CN4CCN(CCO)CC4)cn3)nc12 [Compound 845]	≥ 100 nM	< 10 nM	–	–
